Assay [1] has as its system SARS-CoV-2. As to conditions: from WO 2021/249667 and WO 2021/219244; cited from earlier work.
The test system of the next assay is 3-nitrotyrosine. As to conditions: ex vivo lung, cigarette smoke; cited from earlier work.
Assay [2] has as its system SARS-CoV-2. Type of assay: cell-based.

Structures can show the parent of a compound that is named as a salt. Where two headings read alike, the source gives them in different places.

As to `C=C[C@H]1CN2CC[C@H]1C[C@@H]2[C@@H](O)c1ccnc2ccc(OC)cc12` [quinidine, (+)-(9S)-6′-methoxycinchonan-9-ol], in the assay on SARS-CoV-2 [1], the “inhibition of the replication of SARS-CoV-2 in vitro” value (from here on “inhibition”) was “Such an effect was also described”.
For the molecule `Nc1cccc2c(=O)[nH][nH]c(=O)c12.[Na]` [5-amino-2,3-dihydro-1,4-phthalazinedione sodium salt], the “reduction of 3-nitrotyrosine” value in the assay with 3-nitrotyrosine is on record as “nearly complete reduction”. Besides, the “amount of SARS-CoV-2 RNA copies (qRT-PCR-amplified RdRp, in relation to untreated cells)” value (shortened to “amount of SARS-CoV-2 RNA copies”) with SARS-CoV-2 [2] is given as “dose-dependent reduction”. Further, in the assay on SARS-CoV-2 [1], the “inhibition” value was “dose-dependently inhibit”.
Turning to `C=C[C@H]1CN2CC[C@H]1C[C@H]2[C@H](O)c1ccnc2ccc(OC)cc12` [quinine, (−)-(8a,9R)-6′-methoxycinchonan-9-ol], the “inhibition” value with SARS-CoV-2 [1] is “Such an effect was also described”.
For the molecule `C=C[C@H]1C[N@@]2CC[C@H]1C[C@@H]2[C@@H](O)c1ccnc2ccc(OC)cc12` [quinidine sulfate], the “amount of SARS-CoV-2 RNA copies” value in the assay with SARS-CoV-2 [2] (Example 3, Calu-3 cells, 3 days, luminol sodium salt 500/250/125 μM, quinidine sulfate 10/1/0.1 μM, alone and combined, n=2) is “dose-dependent reduction”.
Consider `C=C[C@H]1C[N@@]2CC[C@H]1C[C@H]2[C@H](O)c1ccnc2ccc(OC)cc12` [quinine sulfate], for which the “amount of SARS-CoV-2 RNA copies” value with SARS-CoV-2 [2] (Example 1, Calu-3 cells, 3 days, luminol sodium salt 500/250/125 μM, quinine sulfate 10/1/0.1 μM, alone and combined, n=3) is reported as “dose-dependent reduction”.

The values above are taken from patent US20250032486A1, “COMBINATION OF 5-AMINO-2,3-DIHYDRO-1,4-PHTALAZINEDIONE AND A 6'-METHOXYCINCHONAN-9-OL FOR USE IN THE TREATMENT OF CORONAVIRAL INFECTIONS” (METROPHARM AG, priority 2021, published 2025).
